Paper PMC6007354 (2016)

Key:
[1] = tested on: tRNA (GCGCGCGCGC) (RNA, other) GCGCGCGCGC; assay: fluorescence turn-on (443 nm); settings: 10 mM HEPES pH 7.4; probe 10 uM; quantum yield 0.22; no constant
[2] = tested on: tRNA (GCGCGCGCGC) (RNA, other) GCGCGCGCGC; assay: 1H NMR titration; settings: 0.01 M HEPES pH 7.4 in D2O; shifts of probe and base protons
[3] = tested on: tRNA (AUAUAUAUAU) (RNA, other) AUAUAUAUAU; assay: 1H NMR titration; settings: 0.01 M HEPES pH 7.4 in D2O; shifts of probe and base protons
[4] = tested on: tRNA (AUAUAUAUAU) (RNA, other) AUAUAUAUAU; assay: fluorescence turn-on (443 nm); settings: 10 mM HEPES pH 7.4; probe 10 uM; quantum yield 0.21; no constant

Measured: binding

C[n+]1ccn(Cc2ccc3ccccc3c2)c1
yes: all assays above
